# Test results as given in PMC6023887, “GTP-binding facilitates EB1 recruitment onto microtubules by relieving its auto-inhibition” (Scientific Reports, 2018).
# Substitutions are numbered along the chain they refer to. Names and notes keep the numbering of the source.
# T1: EB1n (EB1 N-terminus, residues 1-151) (Homo sapiens, UniProt Q15691)
# T1 construct: gene MAPRE1; N-terminal fragment 1-151 containing CH domain (1-130); pET3d, E. coli BL21(DE3), untagged, cation exchange; mainly monomer
# T1 sequence (Q15691 1-151): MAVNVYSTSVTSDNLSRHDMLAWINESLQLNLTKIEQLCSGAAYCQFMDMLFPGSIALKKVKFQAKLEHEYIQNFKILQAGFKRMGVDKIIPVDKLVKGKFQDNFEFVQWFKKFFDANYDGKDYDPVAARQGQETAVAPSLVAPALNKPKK
# T2: full length EB1 (His-tagged) (Homo sapiens, UniProt Q15691)
# T2 construct: gene MAPRE1; full length 268 residues, His-tagged, recombinant, purified as in authors' earlier work; dimer
# T2 sequence (Q15691 1-268): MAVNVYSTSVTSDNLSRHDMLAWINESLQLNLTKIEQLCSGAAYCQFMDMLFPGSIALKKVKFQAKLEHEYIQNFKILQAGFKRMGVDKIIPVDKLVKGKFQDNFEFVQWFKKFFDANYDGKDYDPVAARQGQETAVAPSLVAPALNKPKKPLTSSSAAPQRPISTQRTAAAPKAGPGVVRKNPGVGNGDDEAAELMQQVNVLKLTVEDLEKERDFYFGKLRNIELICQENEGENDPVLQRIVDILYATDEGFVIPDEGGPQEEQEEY
# B1: EB1 R17A H18A-GFP (natural protein, human, UniProt Q15691 1-268, looked up)
# chain: T2 sequence (Q15691 1-268) with R17A, H18A
# notes: EB1, human, full-length cDNA with R17A and H18A; Made with the WT EB1-GFP pET22b eGFP plasmid as template; also called R17A H18A EB1-GFP; mutant EB1-GFP; source: E. coli BL21 (DE3), purified (Ni-NTA)
# Legend:
# [1] = biological target: T1, EB1n (EB1 N-terminus, residues 1-151); test: isothermal titration calorimetry; format: binding; details: 80 mM PIPES, 1 mM EGTA, 1 mM MgCl2, pH 6.9, 25 °C; N fitted freely; range over three experiments, printed jointly for EB1n and full length; noisy data; NMR in other buffers gives mM Kd
# [2] = biological target: T2, full length EB1 (His-tagged); test: isothermal titration calorimetry; format: binding; details: 80 mM PIPES, 1 mM EGTA, 1 mM MgCl2, pH 6.9, 25 °C; N fixed at 2; range over three experiments, printed jointly for EB1n and full length; saturation incomplete
# [3] = biological target: Rhodamine labeled microtubules polymerized with GTPγS (UniProt P02550 1-451, rhodamine on part of the tubulin (3 µM rhodamine-labeled tubulin with 40 µM tubulin)); which chain carries it is not stated | rhodamine on part of the tubulin (3 µM rhodamine-labeled tubulin with 40 …); test: confocal fluorescence imaging of purified EB1-GFP on microtubules held on coverslips; rhodamine microtubules (GTPγS) on poly-lysine coverslips, washed free of GTPγS; 10 µM EB1-GFP protein added, 10 min, 37 °C, BRB80 pH 6.9; fixed with 1% glutaraldehyde; GFP intensity per pixel along microtubules; details: both partners purified
# [4] = biological target: Microtubules polymerized from tubulin with GTPγS (UniProt P02550 1-451); test: binding to microtubules held on coverslips, wash, SDS-PAGE of the bound protein; microtubules (40 µM tubulin, GTPγS) on poly-lysine coverslips, washed; 10 µM EB1-GFP protein added, 10 min at 37 °C (15 min in the legend), BRB80; unbound protein washed off; Coomassie bands normalized against tubulin; the paper calls it sedimentation; details: both partners purified
Molecule,Kd [1],Kd [2],fold increase of GFP intensity per pixel on microtubules against wild-type EB1-GFP [3] [fold],fold amount bound to microtubules against wild-type EB1 [4] [fold]
Nc1nc2c(ncn2[C@@H]2O[C@H](COP(=O)(O)OP(=O)(O)OP(=O)(O)O)[C@@H](O)[C@H]2O)c(=O)[nH]1 [GTP],~10 to ~30 µM,~10 to ~30 µM,–,–
B1,–,–,~2,~1.5
